Assay results published in ChEMBL document CHEMBL4507261, “Data for DCP probe A-192621” (2021).

Tests used:
[1] = target: Ribosomal protein S6 kinase alpha-1 (Homo sapiens) (UniProt Q15418); details: Compound concentration 1000.0 nM
[2] = tested on: Tyrosine-protein kinase ABL1 (Homo sapiens), P00519 [E255K]; details: Compound concentration 1000.0 nM
[3] = target: Platelet-derived growth factor receptor alpha (Homo sapiens) (UniProt P16234); details: Compound concentration 1000.0 nM
[4] = target: Tyrosine-protein kinase Blk (Homo sapiens) (UniProt P51451); details: Compound concentration 1000.0 nM
[5] = target: Serine/threonine-protein kinase Sgk3 (Homo sapiens) (UniProt Q96BR1); details: Compound concentration 1000.0 nM
[6] = target: Death-associated protein kinase 2 (Homo sapiens) (UniProt Q9UIK4); details: Compound concentration 1000.0 nM
[7] = target: Vasoactive intestinal polypeptide receptor 1 (Homo sapiens) (UniProt P32241); test: VPAC1 (VIP1) (h) Eurofins-Cerep binding assay; parameters: ligand concentration 0.04 nM; details: filed as agonist, Compound concentration 10.0 uM
[8] = target: Muscle, skeletal receptor tyrosine-protein kinase (Homo sapiens) (UniProt O15146); details: Compound concentration 1000.0 nM
[9] = target: Ephrin type-A receptor 5 (Homo sapiens) (UniProt P54756); details: Compound concentration 1000.0 nM
Ephrin type-A receptor 5 (Homo sapiens), sequence (P54756 whole entry): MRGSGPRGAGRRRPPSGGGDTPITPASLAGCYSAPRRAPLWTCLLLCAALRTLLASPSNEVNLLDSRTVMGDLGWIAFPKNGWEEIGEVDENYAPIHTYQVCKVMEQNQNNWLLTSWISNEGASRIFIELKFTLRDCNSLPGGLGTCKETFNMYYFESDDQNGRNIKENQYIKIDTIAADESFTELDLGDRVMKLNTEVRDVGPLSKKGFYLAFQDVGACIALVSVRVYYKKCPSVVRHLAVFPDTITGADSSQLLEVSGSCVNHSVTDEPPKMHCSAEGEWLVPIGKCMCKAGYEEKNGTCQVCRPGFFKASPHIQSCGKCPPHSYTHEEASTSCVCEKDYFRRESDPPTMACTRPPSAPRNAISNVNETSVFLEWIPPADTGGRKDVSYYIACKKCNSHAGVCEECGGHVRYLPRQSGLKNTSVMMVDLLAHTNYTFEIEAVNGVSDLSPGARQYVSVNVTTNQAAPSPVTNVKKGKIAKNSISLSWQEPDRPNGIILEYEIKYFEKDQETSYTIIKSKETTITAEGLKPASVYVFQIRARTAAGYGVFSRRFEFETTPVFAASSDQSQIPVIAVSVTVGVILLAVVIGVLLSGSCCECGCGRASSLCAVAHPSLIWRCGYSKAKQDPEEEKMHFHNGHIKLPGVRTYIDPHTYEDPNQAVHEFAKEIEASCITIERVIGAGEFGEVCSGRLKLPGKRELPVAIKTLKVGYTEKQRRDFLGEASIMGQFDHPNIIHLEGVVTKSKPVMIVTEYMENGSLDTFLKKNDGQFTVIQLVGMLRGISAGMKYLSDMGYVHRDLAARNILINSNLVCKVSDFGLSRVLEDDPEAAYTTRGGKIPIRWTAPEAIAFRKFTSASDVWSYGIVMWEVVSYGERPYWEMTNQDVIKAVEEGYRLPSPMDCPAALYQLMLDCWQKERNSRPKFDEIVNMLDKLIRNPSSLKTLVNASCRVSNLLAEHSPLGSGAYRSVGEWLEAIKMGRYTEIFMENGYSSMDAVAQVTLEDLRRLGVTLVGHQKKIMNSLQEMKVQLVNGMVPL

[10] = target: Serine/threonine-protein kinase Nek10 (Homo sapiens) (UniProt Q6ZWH5); details: Compound concentration 1000.0 nM
[11] = target: P2X receptor (Rattus norvegicus) (UniProt P51579+P49653+P51578+Q64663+P47824+P51577+P49654); test: P2X Eurofins-Cerep binding assay; format: protein assay; parameters: ligand concentration 3 nM; details: filed as agonist, Compound concentration 10.0 uM
[12] = target: Serine/threonine-protein kinase D1 (Homo sapiens) (UniProt Q15139); details: Compound concentration 1000.0 nM
[13] = target: Mu-type opioid receptor (Homo sapiens) (UniProt P35372); test: mu (MOP) (h) Eurofins-Cerep binding assay; details: filed as agonist, Compound concentration 10.0 uM
Mu-type opioid receptor (Homo sapiens), sequence (P35372 whole entry): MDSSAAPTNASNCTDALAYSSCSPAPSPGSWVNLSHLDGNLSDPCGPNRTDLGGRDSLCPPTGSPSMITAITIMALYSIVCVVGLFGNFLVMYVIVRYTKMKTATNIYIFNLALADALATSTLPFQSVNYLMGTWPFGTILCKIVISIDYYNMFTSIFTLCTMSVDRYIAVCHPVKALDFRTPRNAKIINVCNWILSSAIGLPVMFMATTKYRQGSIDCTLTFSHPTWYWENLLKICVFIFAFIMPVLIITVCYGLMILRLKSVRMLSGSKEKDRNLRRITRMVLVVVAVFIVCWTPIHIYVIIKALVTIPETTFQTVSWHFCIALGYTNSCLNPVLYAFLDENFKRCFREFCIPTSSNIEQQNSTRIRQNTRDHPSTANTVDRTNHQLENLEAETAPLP

[14] = target: Ephrin type-B receptor 6 (Homo sapiens) (UniProt O15197); details: Compound concentration 1000.0 nM
[15] = target: Ribosomal protein S6 kinase alpha-2 (Homo sapiens) (UniProt Q15349); details: Compound concentration 1000.0 nM
[16] = target: BDNF/NT-3 growth factors receptor (Homo sapiens) (UniProt Q16620); details: Compound concentration 1000.0 nM
[17] = tested on: Tyrosine-protein kinase ABL1 (Homo sapiens), P00519 [H396P]; details: Compound concentration 1000.0 nM
[18] = target: Delta-type opioid receptor (Homo sapiens) (UniProt P41143); test: delta (DOP) (h) Eurofins-Cerep binding assay; parameters: ligand concentration 0.5 nM; details: filed as agonist, Compound concentration 10.0 uM
[19] = target: cAMP-dependent protein kinase catalytic subunit alpha (Homo sapiens) (UniProt P17612); details: Compound concentration 1000.0 nM
[20] = target: Serine/threonine-protein kinase STK11 (Homo sapiens) (UniProt Q15831); details: Compound concentration 1000.0 nM
[21] = target: NUAK family SNF1-like kinase 1 (Homo sapiens) (UniProt O60285); details: Compound concentration 1000.0 nM
[22] = target: Serine/threonine-protein kinase PAK 4 (Homo sapiens) (UniProt O96013); details: Compound concentration 1000.0 nM
[23] = tested on: Phosphatidylinositol 4,5-bisphosphate 3-kinase catalytic subunit alpha isoform (Homo sapiens), P42336 [I800L]; details: Compound concentration 1000.0 nM
[24] = target: Tyrosine-protein kinase Fyn (Homo sapiens) (UniProt P06241); details: Compound concentration 1000.0 nM
[25] = target: Dual specificity testis-specific protein kinase 1 (Homo sapiens) (UniProt Q15569); details: Compound concentration 1000.0 nM
[26] = species: Rattus norvegicus; test: SKCa channel Eurofins-Cerep binding assay; parameters: ligand concentration 0.007 nM; details: filed as antagonist, Compound concentration 10.0 uM
[27] = target: LIM domain kinase 2 (Homo sapiens) (UniProt P53671); details: Compound concentration 1000.0 nM
[28] = target: Death-associated protein kinase 1 (Homo sapiens) (UniProt P53355); details: Compound concentration 1000.0 nM
[29] = target: Ephrin type-A receptor 6 (Homo sapiens) (UniProt Q9UF33); details: Compound concentration 1000.0 nM
Ephrin type-A receptor 6 (Homo sapiens), sequence (Q9UF33 whole entry): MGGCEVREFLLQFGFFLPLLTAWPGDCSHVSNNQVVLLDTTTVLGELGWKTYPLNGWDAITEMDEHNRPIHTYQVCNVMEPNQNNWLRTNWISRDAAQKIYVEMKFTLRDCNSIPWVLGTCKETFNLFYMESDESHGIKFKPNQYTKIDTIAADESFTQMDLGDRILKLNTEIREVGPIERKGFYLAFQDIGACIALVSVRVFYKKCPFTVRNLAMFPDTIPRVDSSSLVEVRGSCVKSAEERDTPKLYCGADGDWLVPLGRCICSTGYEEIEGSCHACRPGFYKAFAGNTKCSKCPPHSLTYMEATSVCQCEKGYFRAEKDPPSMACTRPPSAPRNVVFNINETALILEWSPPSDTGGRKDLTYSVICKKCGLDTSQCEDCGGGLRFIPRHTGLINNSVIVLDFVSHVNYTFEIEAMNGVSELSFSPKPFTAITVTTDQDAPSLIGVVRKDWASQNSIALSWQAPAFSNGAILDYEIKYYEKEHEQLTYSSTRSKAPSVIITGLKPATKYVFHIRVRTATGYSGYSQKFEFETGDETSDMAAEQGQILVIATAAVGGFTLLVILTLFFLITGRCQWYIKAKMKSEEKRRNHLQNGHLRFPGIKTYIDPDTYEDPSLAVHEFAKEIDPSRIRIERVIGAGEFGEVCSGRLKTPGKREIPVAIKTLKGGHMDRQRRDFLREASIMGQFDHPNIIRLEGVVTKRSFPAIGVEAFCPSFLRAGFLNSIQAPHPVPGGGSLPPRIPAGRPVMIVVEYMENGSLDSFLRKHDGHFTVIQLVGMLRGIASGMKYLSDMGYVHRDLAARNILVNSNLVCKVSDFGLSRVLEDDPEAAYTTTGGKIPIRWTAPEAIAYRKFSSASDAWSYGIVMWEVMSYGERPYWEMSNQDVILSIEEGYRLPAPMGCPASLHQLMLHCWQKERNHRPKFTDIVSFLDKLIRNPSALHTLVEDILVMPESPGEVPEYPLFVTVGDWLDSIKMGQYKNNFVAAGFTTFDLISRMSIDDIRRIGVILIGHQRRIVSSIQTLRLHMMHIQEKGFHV

[30] = target: Mu-type opioid receptor (Homo sapiens) (UniProt P35372); details: Compound concentration 10.0 uM
[31] = target: Dual specificity tyrosine-phosphorylation-regulated kinase 2 (Homo sapiens) (UniProt Q92630); details: Compound concentration 1000.0 nM
Dual specificity tyrosine-phosphorylation-regulated kinase 2 (Homo sapiens), sequence (Q92630 whole entry): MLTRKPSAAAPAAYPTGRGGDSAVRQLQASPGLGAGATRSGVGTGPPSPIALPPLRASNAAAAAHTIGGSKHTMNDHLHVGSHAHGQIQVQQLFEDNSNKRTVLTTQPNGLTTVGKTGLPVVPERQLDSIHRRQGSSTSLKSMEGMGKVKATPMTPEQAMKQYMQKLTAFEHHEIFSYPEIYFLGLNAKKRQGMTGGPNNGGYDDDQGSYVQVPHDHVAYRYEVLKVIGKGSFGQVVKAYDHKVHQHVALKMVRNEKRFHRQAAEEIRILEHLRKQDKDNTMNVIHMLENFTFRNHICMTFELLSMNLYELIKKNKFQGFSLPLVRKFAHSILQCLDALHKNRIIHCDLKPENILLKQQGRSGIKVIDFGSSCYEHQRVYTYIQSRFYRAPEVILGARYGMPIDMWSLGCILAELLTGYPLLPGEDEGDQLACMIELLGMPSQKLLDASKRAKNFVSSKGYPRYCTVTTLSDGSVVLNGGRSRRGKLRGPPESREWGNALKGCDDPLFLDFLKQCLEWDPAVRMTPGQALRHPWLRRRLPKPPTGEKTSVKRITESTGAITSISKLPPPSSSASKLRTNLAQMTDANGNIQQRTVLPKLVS

[32] = target: Insulin receptor (Homo sapiens) (UniProt P06213); details: Compound concentration 1000.0 nM
[33] = tested on: Tyrosine-protein kinase ABL1 (Homo sapiens), P00519 [F317I]; details: Compound concentration 1000.0 nM
[34] = target: Transient receptor potential cation channel subfamily M member 6 (Homo sapiens) (UniProt Q9BX84); details: Compound concentration 1000.0 nM
[35] = target: Serine/threonine-protein kinase 17A (Homo sapiens) (UniProt Q9UEE5); details: Compound concentration 1000.0 nM
[36] = target: Tyrosine-protein kinase ZAP-70 (Homo sapiens) (UniProt P43403); details: Compound concentration 1000.0 nM
[37] = target: Dual specificity mitogen-activated protein kinase kinase 6 (Homo sapiens) (UniProt P52564); details: Compound concentration 1000.0 nM
[38] = target: Tyrosine-protein kinase ABL2 (Homo sapiens) (UniProt P42684); details: Compound concentration 1000.0 nM
Tyrosine-protein kinase ABL2 (Homo sapiens), sequence (P42684 whole entry): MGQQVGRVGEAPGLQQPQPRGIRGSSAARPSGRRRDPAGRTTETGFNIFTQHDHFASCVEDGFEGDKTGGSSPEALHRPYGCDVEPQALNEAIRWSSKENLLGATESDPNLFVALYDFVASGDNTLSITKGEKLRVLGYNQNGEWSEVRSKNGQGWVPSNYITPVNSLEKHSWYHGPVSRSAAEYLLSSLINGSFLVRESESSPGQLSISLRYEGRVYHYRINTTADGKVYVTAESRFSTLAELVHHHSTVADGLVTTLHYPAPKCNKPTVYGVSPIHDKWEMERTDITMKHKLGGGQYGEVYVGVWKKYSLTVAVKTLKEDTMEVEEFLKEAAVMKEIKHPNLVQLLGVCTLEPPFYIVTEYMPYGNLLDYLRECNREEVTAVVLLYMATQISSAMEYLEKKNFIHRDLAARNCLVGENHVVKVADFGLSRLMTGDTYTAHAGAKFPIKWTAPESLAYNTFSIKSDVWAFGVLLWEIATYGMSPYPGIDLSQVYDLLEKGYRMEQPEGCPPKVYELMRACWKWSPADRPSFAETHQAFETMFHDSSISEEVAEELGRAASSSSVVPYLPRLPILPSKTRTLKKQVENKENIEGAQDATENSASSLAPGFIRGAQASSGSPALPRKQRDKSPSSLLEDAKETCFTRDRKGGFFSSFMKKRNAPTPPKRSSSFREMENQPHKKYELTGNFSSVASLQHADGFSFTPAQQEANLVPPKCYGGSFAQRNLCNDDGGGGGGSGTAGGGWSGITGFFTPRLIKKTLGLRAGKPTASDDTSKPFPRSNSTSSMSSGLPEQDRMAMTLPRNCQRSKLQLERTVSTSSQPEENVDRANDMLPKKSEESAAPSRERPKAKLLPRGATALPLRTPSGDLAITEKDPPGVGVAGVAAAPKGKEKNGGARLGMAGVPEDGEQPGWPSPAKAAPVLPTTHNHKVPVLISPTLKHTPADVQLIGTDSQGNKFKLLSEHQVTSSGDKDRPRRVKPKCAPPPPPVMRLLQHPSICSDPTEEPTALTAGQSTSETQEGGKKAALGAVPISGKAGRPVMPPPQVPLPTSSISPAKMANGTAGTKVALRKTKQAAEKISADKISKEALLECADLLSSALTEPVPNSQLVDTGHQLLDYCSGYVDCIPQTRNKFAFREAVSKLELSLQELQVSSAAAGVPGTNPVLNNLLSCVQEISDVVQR

[39] = target: Serine/threonine-protein kinase haspin (Homo sapiens) (UniProt Q8TF76); details: Compound concentration 1000.0 nM
[40] = target: Atypical kinase COQ8A, mitochondrial (Homo sapiens) (UniProt Q8NI60); details: Compound concentration 1000.0 nM
[41] = target: Adenosine receptor A2a (Homo sapiens) (UniProt P29274); test: A2A (h) Eurofins-Cerep binding assay; parameters: ligand concentration 6 nM; details: filed as agonist, Compound concentration 10.0 uM
[42] = target: Mitogen-activated protein kinase kinase kinase 14 (Homo sapiens) (UniProt Q99558); details: Compound concentration 1000.0 nM
[43] = target: Vascular endothelial growth factor receptor 3 (Homo sapiens) (UniProt P35916); details: Compound concentration 1000.0 nM
[44] = target: Serine/threonine-protein kinase MARK2 (Homo sapiens) (UniProt Q7KZI7); details: Compound concentration 1000.0 nM
[45] = target: Uncharacterized serine/threonine-protein kinase SBK3 (Homo sapiens) (UniProt P0C264); details: Compound concentration 1000.0 nM

Ribosomal protein S6 kinase alpha-1 (Homo sapiens), sequence (Q15418 whole entry): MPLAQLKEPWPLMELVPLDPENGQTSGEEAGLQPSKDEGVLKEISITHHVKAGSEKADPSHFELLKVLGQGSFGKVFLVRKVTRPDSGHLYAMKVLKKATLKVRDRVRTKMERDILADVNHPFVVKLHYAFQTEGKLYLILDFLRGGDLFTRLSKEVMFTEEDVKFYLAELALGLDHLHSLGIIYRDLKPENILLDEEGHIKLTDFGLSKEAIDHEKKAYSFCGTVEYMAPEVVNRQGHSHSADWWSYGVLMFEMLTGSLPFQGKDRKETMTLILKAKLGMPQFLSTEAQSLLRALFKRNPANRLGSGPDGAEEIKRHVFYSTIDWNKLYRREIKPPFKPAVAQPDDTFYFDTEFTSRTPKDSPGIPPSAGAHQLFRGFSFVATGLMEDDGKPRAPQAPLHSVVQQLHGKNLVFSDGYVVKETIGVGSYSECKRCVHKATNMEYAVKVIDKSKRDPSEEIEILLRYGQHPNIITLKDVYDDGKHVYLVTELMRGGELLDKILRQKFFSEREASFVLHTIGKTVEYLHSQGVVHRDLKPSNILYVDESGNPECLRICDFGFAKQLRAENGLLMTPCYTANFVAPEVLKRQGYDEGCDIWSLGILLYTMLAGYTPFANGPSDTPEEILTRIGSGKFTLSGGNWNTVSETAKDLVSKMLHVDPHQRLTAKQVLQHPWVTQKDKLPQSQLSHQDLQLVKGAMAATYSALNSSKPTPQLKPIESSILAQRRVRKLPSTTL

With `CCCOc1ccc([C@H]2[C@H](C(=O)O)[C@@H](c3ccc4c(c3)OCO4)CN2CC(=O)Nc2c(CC)cccc2CC)cc1` [A-192621] the residual activity [1] was 87%, the residual activity [2] was 70% and the residual activity [3] was 80%. For the same compound, the residual activity [4] was 88%, the residual activity [5] was 63% and the residual activity [6] was 100%. For the same compound, the % Inhibition of Control Specific Binding (Mean n=2) [7] was -7.7%, the residual activity [8] was 82% and the residual activity [9] was 100%. For the same compound, the residual activity [10] was 82%, the % Inhibition of Control Specific Binding (Mean n=2) [11] was -2.8% and the residual activity [12] was 94%. For the same compound, the % Inhibition of Control Specific Binding (Mean n=2) [13] was 8.3%, the residual activity [14] was 65% and the residual activity [15] was 93%. It also gave a residual activity [16] of 85%, a residual activity [17] of 81% and a % Inhibition of Control Specific Binding (Mean n=2) [18] of 33.5%. It also gave a residual activity [19] of 100%, a residual activity [20] of 88% and a residual activity [21] of 83%. The residual activity [22] was 91%, the residual activity [23] was 81% and the residual activity [24] was 100%. For the same compound, the residual activity [25] was 89%, the % Inhibition of Control Specific Binding (Mean n=2) [26] was 0.5% and the residual activity [27] was 100%. The residual activity [28] was 90%, the residual activity [29] was 100% and the inhibition [30] was 6.79%. The residual activity [31] was 74%, the residual activity [32] was 74% and the residual activity [33] was 76%. The residual activity [34] was 94%, the residual activity [35] was 92% and the residual activity [36] was 50%. It also gave a residual activity [37] of 100%, a residual activity [38] of 100% and a residual activity [39] of 62%. It also gave a residual activity [40] of 100%, a % Inhibition of Control Specific Binding (Mean n=2) [41] of -4.8% and a residual activity [42] of 85%. It also gave a residual activity [43] of 90%, a residual activity [44] of 88% and a residual activity [45] of 94%.

For `CCCOc1ccc([C@@H]2[C@@H](C(=O)O)[C@H](c3ccc4c(c3)OCO4)CN2CC(=O)Nc2c(CC)cccc2CC)cc1` [A-1806262], the residual activity [1] was 100%, the residual activity [2] was 82% and the residual activity [3] was 76%. For the same compound, the residual activity [4] was 96%, the residual activity [5] was 69% and the residual activity [6] was 80%. The % Inhibition of Control Specific Binding (Mean n=2) [7] was -1.5%, the residual activity [8] was 97% and the residual activity [9] was 100%. The residual activity [10] was 96%, the % Inhibition of Control Specific Binding (Mean n=2) [11] was 13.4% and the residual activity [12] was 96%. For the same compound, the % Inhibition of Control Specific Binding (Mean n=2) [13] was 11.1%, the residual activity [14] was 77% and the residual activity [15] was 100%. The residual activity [16] was 100%, the residual activity [17] was 90% and the % Inhibition of Control Specific Binding (Mean n=2) [18] was 23.5%. It also gave a residual activity [19] of 100%, a residual activity [20] of 100% and a residual activity [21] of 99%. For the same compound, the residual activity [22] was 91%, the residual activity [23] was 71% and the residual activity [24] was 87%. For the same compound, the residual activity [25] was 100%, the % Inhibition of Control Specific Binding (Mean n=2) [26] was -2% and the residual activity [27] was 64%. The residual activity [28] was 83%, the residual activity [29] was 98% and the residual activity [31] was 92%. It also gave a residual activity [32] of 89%, a residual activity [33] of 96% and a residual activity [34] of 77%. For the same compound, the residual activity [35] was 92%, the residual activity [36] was 94% and the residual activity [37] was 100%. It also gave a residual activity [38] of 96%, a residual activity [39] of 99% and a residual activity [40] of 100%. For the same compound, the % Inhibition of Control Specific Binding (Mean n=2) [41] was -12.4%, the residual activity [42] was 82% and the residual activity [43] was 100%. The residual activity [44] was 92% and the residual activity [45] was 85%.
